Results: ChEMBL document CHEMBL1126722, “Potent nonpeptide angiotensin II receptor antagonists. 2. 1-(Carboxybenzyl)imidazole-5-acrylic acids” (J Med Chem, 1993)

Assays:
Angiotensin II receptor = target: T1, Angiotensin II receptor (Rattus norvegicus, UniProt P29089+P25095+P35351); assay: Inhibition of [125I]AII binding to Angiotensin II receptor, type 1 of rat mesenteric arteries; format: protein assay
T1 sequence (P29089 whole entry): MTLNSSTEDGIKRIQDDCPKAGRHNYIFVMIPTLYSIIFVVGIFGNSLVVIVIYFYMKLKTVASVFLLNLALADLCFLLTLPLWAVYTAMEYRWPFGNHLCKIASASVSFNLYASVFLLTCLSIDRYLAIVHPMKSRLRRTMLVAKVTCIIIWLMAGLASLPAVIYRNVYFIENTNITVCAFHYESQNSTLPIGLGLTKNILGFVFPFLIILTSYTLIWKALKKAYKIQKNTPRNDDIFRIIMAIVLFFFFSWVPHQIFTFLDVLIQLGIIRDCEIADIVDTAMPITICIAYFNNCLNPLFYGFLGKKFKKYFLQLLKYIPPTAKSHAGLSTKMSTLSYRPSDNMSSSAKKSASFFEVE
T1 sequence (P25095 whole entry): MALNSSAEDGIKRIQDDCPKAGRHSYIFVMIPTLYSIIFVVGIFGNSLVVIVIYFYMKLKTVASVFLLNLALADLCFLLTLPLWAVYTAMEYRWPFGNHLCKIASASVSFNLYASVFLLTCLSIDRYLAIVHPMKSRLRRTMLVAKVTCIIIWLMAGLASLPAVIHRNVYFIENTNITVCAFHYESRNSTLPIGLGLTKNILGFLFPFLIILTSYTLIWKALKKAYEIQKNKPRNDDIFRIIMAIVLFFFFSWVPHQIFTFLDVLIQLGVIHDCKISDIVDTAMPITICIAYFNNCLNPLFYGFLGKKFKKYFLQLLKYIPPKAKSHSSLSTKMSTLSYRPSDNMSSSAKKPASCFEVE
T1 sequence (P35351 whole entry): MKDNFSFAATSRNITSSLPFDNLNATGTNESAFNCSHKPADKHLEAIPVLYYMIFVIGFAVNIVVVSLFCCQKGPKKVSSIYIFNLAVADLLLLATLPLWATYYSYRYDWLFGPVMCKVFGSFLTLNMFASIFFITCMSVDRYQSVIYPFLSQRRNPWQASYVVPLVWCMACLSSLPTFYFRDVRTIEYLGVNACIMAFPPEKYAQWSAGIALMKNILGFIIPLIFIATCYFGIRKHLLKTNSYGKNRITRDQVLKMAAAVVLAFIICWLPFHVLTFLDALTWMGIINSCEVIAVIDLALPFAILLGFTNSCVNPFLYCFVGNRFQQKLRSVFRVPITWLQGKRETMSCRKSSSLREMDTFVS

[1] = target: Angiotensin II receptor (Rattus norvegicus) (UniProt P29089+P25095+P35351); assay: In vivo inhibition of pressor response to angiotensin II in conscious normotensive rats; format: functional, organism-based

Structure (SMILES)	IC50 (Angiotensin II receptor) [µM]	ID50 [1] [mg/kg]
CCCCCCc1ncc(/C=C(\Cc2cccs2)C(=O)O)n1Cc1ccccc1[N+](=O)[O-]	0.043	
CCCCCCc1ncc(/C=C(\Cc2cccs2)C(=O)O)n1Cc1ccc(C(=O)O)cc1	0.0008	0.6
CCCCc1ncc(/C=C(\Cc2cccs2)C(=O)OCC)n1Cc1ccc(C(=O)OCC)cc1	1.27	
CCCCc1ncc(/C=C(/C(=O)O)C(C)(C)c2cccs2)n1Cc1ccc(C(=O)O)cc1	0.416	
CC(C)CCc1ncc(/C=C(\Cc2cccs2)C(=O)O)n1Cc1ccc(C(=O)O)cc1	0.0336	
CCCCc1ncc(/C=C(\Cc2cccs2)C(=O)O)n1Cc1cccc(C(=O)O)c1	0.0033	
CCCCc1ncc(/C=C(\CC2CCCS2)C(=O)O)n1Cc1ccc(C(=O)O)cc1 (centres undefined)	0.0338	
CCCc1ncc(/C=C(\Cc2cccs2)C(=O)O)n1Cc1ccc(C(=O)O)cc1	0.005	0.16
CCCCc1ncc(/C=C(\Cc2cccs2)C(=O)O)n1Cc1ccc(C(N)=O)cc1	0.00056	
CCCCc1ncc(/C=C(\Cc2cccs2)C(=O)O)n1Cc1ccccc1C#N	0.022	
CCCCc1ncc(/C=C(\Cc2cccs2)C(N)=O)n1Cc1ccc(C(=O)O)cc1	0.021	
CCCCc1ncc(/C=C(\Cc2cccs2)C(=O)O)n1Cc1ccc(C(=O)OCC)cc1	0.0276	
CCCCc1ncc(/C=C(\Cc2cccs2)C(=O)O)n1Cc1ccc(C(=O)O)cc1 (stereo in doubt; 2)		0.08
CC(C)Cc1ncc(/C=C(\Cc2cccs2)C(=O)O)n1Cc1ccc(C(=O)O)cc1	0.163	2
CCCCc1ncc(/C=C(\Cc2cccs2)C(=O)O)n1Cc1ccc(C(=O)O)c(-c2ccccc2)c1	0.0025	0.18
CCCc1ncc(/C=C(\Cc2cccs2)C(=O)O)n1Cc1ccccc1Cl	0.127	8.1
CCCCc1ncc(/C=C(\Cc2cccs2)c2nn[nH]n2)n1Cc1ccccc1[N+](=O)[O-]	0.23	3.5
CCCCc1ncc(/C=C(\Cc2cccs2)c2nn[nH]n2)n1Cc1ccccc1Cl	0.31	8
CCCCc1ncc(/C=C(\Cc2cccs2)C(=O)O)n1Cc1ccc(C(=O)O)c(O)c1	0.00059	0.15
CCCCc1ncc(/C=C(\Cc2cccs2)C(N)=O)n1Cc1ccc(C(N)=O)cc1	0.0942	
CCCCc1ncc(/C=C(\Cc2cccs2)C(=O)O)n1Cc1ccccc1Cl		3.6

Structure (SMILES)	IC50 (Angiotensin II receptor) [µM]	ID50 [1] [mg/kg]
CCCCc1ncc(/C=C(\Cc2cccs2)C(=O)O)n1Cc1cccc(OC)c1	0.18	8
CCCCc1ncc(/C=C(\Cc2cccs2)C(=O)O)n1Cc1ccc(S(N)(=O)=O)cc1	0.0045	> 3
CCCCc1ncc(/C=C(\Cc2cccs2)C(=O)O)n1Cc1ccc(C(=O)O)c(C(=O)O)c1	0.0046	0.12
CCCCc1ncc(/C=C(\Cc2cccs2)c2nn[nH]n2)n1Cc1cccc(Cl)c1Cl	1.3	8
CCCCc1ncc(/C=C(\Cc2cccs2)C(=O)O)n1Cc1ccc(C(=O)O)c(Cl)c1	0.001	0.12
CCCCc1ncc(/C=C(\Cc2cccs2)C(=O)O)n1Cc1cccc(OC)c1[N+](=O)[O-]	0.13	
CCCCc1ncc(/C=C(\Cc2cccs2)C(=O)O)n1Cc1ccccc1[N+](=O)[O-]	0.031	2.6
CCCCc1ncc(/C=C/C(=O)O)n1Cc1ccc(C(=O)O)cc1	0.391	
CCCCc1ncc(/C=C(\Cc2cccs2)C(=O)O)n1-c1ccc(C(=O)O)cc1	0.25	
CCCCc1ncc(/C=C(\Cc2cccs2)c2nn[nH]n2)n1Cc1ccccc1C(F)(F)F		8
CCCCc1ncc(/C=C(\Cc2cccs2)C(=O)O)n1Cc1ccccc1C(F)(F)F	0.26	3.4
CCCCc1ncc(/C=C(\Cc2cccs2)C(=O)O)n1Cc1ccccc1OC	7.35	15
CCCCc1ncc(/C=C(\Cc2cccs2)C(=O)O)n1Cc1ccc(C(=O)O)cc1Cl	0.00145	0.06
CCCCc1ncc(/C=C(\Cc2cccs2)C(=O)O)n1Cc1cccc([N+](=O)[O-])c1	0.21	7
CCCCc1cnc(/C=C(\Cc2cccs2)C(=O)O)n1Cc1ccc(C(=O)O)cc1	0.248	
CCCCc1ncc(/C=C(\Cc2cccs2)C(=O)O)n1Cc1ccc(C#N)cc1	0.118	
CCCCc1ncc(/C=C(\Cc2cccs2)c2nn[nH]n2)n1Cc1ccc(C(=O)O)cc1	0.0003	0.7
CCCCc1ncc(/C=C(\CCc2cccs2)C(=O)O)n1Cc1ccc(C(=O)O)cc1		0.24
CCCCc1ncc(/C=C(\Cc2cccs2)C(=O)NCC(=O)O)n1Cc1ccc(C(=O)O)cc1	0.00481	
CCCCc1ncc(/C=C(\Cc2cccs2)C(=O)O)n1Cc1ccccc1C(=O)O	6	
CCCCc1ncc(/C=C(\Cc2cccs2)C(=O)O)n1Cc1ccc([N+](=O)[O-])cc1	0.62	

Structure (SMILES)	IC50 (Angiotensin II receptor) [µM]	ID50 [1] [mg/kg]
CCCCc1ncc(C/C(=C/c2cccs2)C(=O)O)n1Cc1ccc(C(=O)O)cc1		> 3
CCCCc1ncc(/C=C(\Cc2cccs2)C(=O)O)n1Cc1ccccc1O	0.034	
CCCC/C(=C\c1cnc(CCCC)n1Cc1ccc(C(=O)O)cc1)C(=O)O		0.33
CCCCc1ncc(/C=C(\Cc2cccs2)C(=O)O)n1Cc1ccc(-c2ccccc2C(=O)O)cc1	0.0066	0.62
CCCCc1ncc(/C=C(\Cc2cccs2)C(=O)O)n1Cc1ccccc1	4.53	
CCCCc1ncc(/C=C(\Cc2cccs2)C(=O)O)n1Cc1ccc(OC)c(C)c1	0.066	
CCCCc1ncc(/C=C(\Cc2cccs2)C(=O)O)n1Cc1cccc(Cl)c1Cl	0.046	2.8
CCCCc1ncc(CC(Cc2cccs2)C(=O)O)n1Cc1ccc(C(=O)O)cc1 (centres undefined)	0.053	0.24
CCCc1ncc(/C=C(\Cc2cccs2)C(=O)O)n1Cc1ccccc1[N+](=O)[O-]	0.015	
CCCCc1ncc(/C=C(\Cc2cccs2)C(=O)O)n1Cc1ccc(O)c(C)c1	0.021	
CCCCCCc1ncc(/C=C(\Cc2cccs2)C(=O)O)n1Cc1ccccc1Cl	0.123	5.7
CC/C=C/c1ncc(/C=C(\Cc2cccs2)C(=O)O)n1Cc1ccccc1Cl	0.57	
CCCCc1ncc(/C=C(\Cc2cccs2)C(=O)O)n1Cc1ccc(C(=O)O)cc1[N+](=O)[O-]	0.00015	0.06
CCCCc1ncc(/C=C(\Cc2cccs2)C(=O)O)n1Cc1ccc(-c2nn[nH]n2)cc1	0.0004	0.2
CCCCc1ncc(/C=C(\Cc2cccs2)C(=O)O)n1CCc1ccc(C(=O)O)cc1	0.063	
CCCCc1ncc(/C=C(\Cc2ccccc2)C(=O)O)n1Cc1ccc(C(=O)O)cc1	0.00426	
CCCCc1ncc(/C=C(\Cc2cccs2)C(=O)O)n1Cc1ccc(C(=O)OC)cc1	0.039	
CCCCc1ncc(/C=C(\Cc2cccs2)C(=O)O)n1Cc1ccc(CC(=O)O)cc1	0.06	0.84
CCCc1cccc(/C=C(\Cc2cccs2)C(=O)O)c1Cc1ccc(C(=O)O)cc1	> 0.01	
CCCCc1ncc(/C=C(\Cc2cccs2)C(=O)O)n1Cc1cc(Cl)c(C(=O)O)cc1Cl	0.035	0.68
